# Results reported in PubChem BioAssay (NCI).
#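 Dose response: 5 concentrations. Exposure: 48 h. Format: 96-well plates. Endpoint: linear interpolation; highest concentration if not reached. GI50 = concentration required for 50% inhibition of growth. TGI: concentration producing complete growth inhibition.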
# Tests used:
# Test in all cases: growth of human tumour cells (NCI), 48 h
# 786-0 renal = tested on: 786-0 renal
# A498 renal = tested on: A498 renal
# A549 NSCLC = tested on: A549 NSCLC
# ACHN renal = tested on: ACHN renal
# BT-549 breast = tested on: BT-549 breast
# CAKI-1 renal = tested on: CAKI-1 renal
# CCRF-CEM leukemia = tested on: CCRF-CEM leukemia
# COLO 205 colon = tested on: COLO 205 colon
# DU-145 prostate = tested on: DU-145 prostate
# EKVX NSCLC = tested on: EKVX NSCLC
# HCC-2998 colon = tested on: HCC-2998 colon
# HCT-116 colon = tested on: HCT-116 colon
# HOP-62 NSCLC = tested on: HOP-62 NSCLC
# HOP-92 NSCLC = tested on: HOP-92 NSCLC
# HS 578T breast = tested on: HS 578T breast
# IGROV1 ovarian = tested on: IGROV1 ovarian
# K-562 leukemia = tested on: K-562 leukemia
# KM12 colon = tested on: KM12 colon
# LOX IMVI melanoma = tested on: LOX IMVI melanoma
# M14 melanoma = tested on: M14 melanoma
# MALME-3M melanoma = tested on: MALME-3M melanoma
# MDA-MB-231 breast = tested on: MDA-MB-231 breast
# MDA-MB-435 = tested on: MDA-MB-435
# MOLT-4 leukemia = tested on: MOLT-4 leukemia
# NCI-H226 lung = tested on: NCI-H226 lung
# NCI-H23 lung = tested on: NCI-H23 lung
# NCI-H460 lung = tested on: NCI-H460 lung
# NCI/ADR-RES ovarian = tested on: NCI/ADR-RES ovarian
# OVCAR-3 ovarian = tested on: OVCAR-3 ovarian
# OVCAR-4 ovarian = tested on: OVCAR-4 ovarian
# OVCAR-5 ovarian = tested on: OVCAR-5 ovarian
# PC-3 prostate = tested on: PC-3 prostate
# RPMI-8226 leukemia = tested on: RPMI-8226 leukemia
# RXF 393 renal = tested on: RXF 393 renal
# SF-268 CNS = tested on: SF-268 CNS
# SF-295 CNS = tested on: SF-295 CNS
# SF-539 CNS = tested on: SF-539 CNS
# SK-MEL-2 melanoma = tested on: SK-MEL-2 melanoma
# SK-MEL-28 melanoma = tested on: SK-MEL-28 melanoma
# SK-MEL-5 melanoma = tested on: SK-MEL-5 melanoma
# SK-OV-3 ovarian = tested on: SK-OV-3 ovarian
# SN12C renal = tested on: SN12C renal
# SNB-19 CNS = tested on: SNB-19 CNS
# SNB-75 CNS = tested on: SNB-75 CNS
# SR leukemia = tested on: SR leukemia
# SW-620 colon = tested on: SW-620 colon
# T-47D breast = tested on: T-47D breast
# TK-10 renal = tested on: TK-10 renal
# UACC-257 melanoma = tested on: UACC-257 melanoma
# UACC-62 melanoma = tested on: UACC-62 melanoma
# UO-31 renal = tested on: UO-31 renal
# HCT-15 colon = tested on: HCT-15 colon
# HL-60(TB) leukemia = tested on: HL-60(TB) leukemia
# HT29 colon = tested on: HT29 colon
# MCF7 breast = tested on: MCF7 breast
# NCI-H522 lung = tested on: NCI-H522 lung
# OVCAR-8 ovarian = tested on: OVCAR-8 ovarian
# U251 CNS = tested on: U251 CNS
structure (smiles),measurement,setting,value
CCN1CCN(c2nc(NNC(=O)c3cccc(OC)c3)nc(N3CCN(C(c4ccccc4)c4ccccc4)CC3)n2)CC1,GI50,786-0 renal,1840 nM
same,TGI,786-0 renal,3580 nM
same,GI50,A498 renal,3730 nM
same,TGI,A498 renal,15300 nM
same,GI50,A549 NSCLC,3050 nM
same,TGI,A549 NSCLC,> 100000 nM
same,GI50,ACHN renal,1930 nM
same,TGI,ACHN renal,3770 nM
same,GI50,BT-549 breast,2650 nM
same,TGI,BT-549 breast,9810 nM
same,GI50,CAKI-1 renal,1540 nM
same,TGI,CAKI-1 renal,3100 nM
same,GI50,CCRF-CEM leukemia,2600 nM
same,TGI,CCRF-CEM leukemia,> 100000 nM
same,GI50,COLO 205 colon,2220 nM
same,TGI,COLO 205 colon,5550 nM
same,GI50,DU-145 prostate,2670 nM
same,TGI,DU-145 prostate,7290 nM
same,GI50,EKVX NSCLC,2460 nM
same,TGI,EKVX NSCLC,12300 nM
same,GI50,HCC-2998 colon,1960 nM
same,TGI,HCC-2998 colon,4330 nM
same,GI50,HCT-116 colon,1610 nM
same,TGI,HCT-116 colon,3220 nM
same,GI50,HOP-62 NSCLC,5760 nM
same,TGI,HOP-62 NSCLC,23500 nM
same,GI50,HOP-92 NSCLC,1290 nM
same,TGI,HOP-92 NSCLC,3330 nM
same,GI50,HS 578T breast,1890 nM
same,TGI,HS 578T breast,4430 nM
same,GI50,IGROV1 ovarian,1890 nM
same,TGI,IGROV1 ovarian,4340 nM
same,GI50,K-562 leukemia,2790 nM
same,TGI,K-562 leukemia,> 100000 nM
same,GI50,KM12 colon,2280 nM
same,TGI,KM12 colon,5480 nM
same,GI50,LOX IMVI melanoma,1620 nM
same,TGI,LOX IMVI melanoma,2970 nM
same,GI50,M14 melanoma,1670 nM
same,TGI,M14 melanoma,3310 nM
same,GI50,MALME-3M melanoma,1520 nM
same,TGI,MALME-3M melanoma,2940 nM
same,GI50,MDA-MB-231 breast,1870 nM
same,TGI,MDA-MB-231 breast,3580 nM
same,GI50,MDA-MB-435,1700 nM
same,TGI,MDA-MB-435,3190 nM
same,GI50,MOLT-4 leukemia,2030 nM
same,TGI,MOLT-4 leukemia,4720 nM
same,GI50,NCI-H226 lung,1690 nM
same,TGI,NCI-H226 lung,3760 nM
same,GI50,NCI-H23 lung,1920 nM
same,TGI,NCI-H23 lung,5030 nM
same,GI50,NCI-H460 lung,1750 nM
same,TGI,NCI-H460 lung,3390 nM
same,GI50,NCI/ADR-RES ovarian,2420 nM
same,TGI,NCI/ADR-RES ovarian,7120 nM
same,GI50,OVCAR-3 ovarian,1940 nM
same,TGI,OVCAR-3 ovarian,3780 nM
same,GI50,OVCAR-4 ovarian,2060 nM
same,TGI,OVCAR-4 ovarian,5970 nM
same,GI50,OVCAR-5 ovarian,2830 nM
same,TGI,OVCAR-5 ovarian,9970 nM
same,GI50,PC-3 prostate,2240 nM
same,TGI,PC-3 prostate,13400 nM
same,GI50,RPMI-8226 leukemia,1840 nM
same,TGI,RPMI-8226 leukemia,4400 nM
same,GI50,RXF 393 renal,1630 nM
same,TGI,RXF 393 renal,3100 nM
same,GI50,SF-268 CNS,1950 nM
same,TGI,SF-268 CNS,4200 nM
same,GI50,SF-295 CNS,1870 nM
same,TGI,SF-295 CNS,3600 nM
same,GI50,SF-539 CNS,1650 nM
same,TGI,SF-539 CNS,3000 nM
same,GI50,SK-MEL-2 melanoma,2020 nM
same,TGI,SK-MEL-2 melanoma,4050 nM
same,GI50,SK-MEL-28 melanoma,1800 nM
same,TGI,SK-MEL-28 melanoma,3340 nM
same,GI50,SK-MEL-5 melanoma,1640 nM
same,TGI,SK-MEL-5 melanoma,3000 nM
same,GI50,SK-OV-3 ovarian,2720 nM
same,TGI,SK-OV-3 ovarian,7080 nM
same,GI50,SN12C renal,1620 nM
same,TGI,SN12C renal,3360 nM
same,GI50,SNB-19 CNS,4630 nM
same,TGI,SNB-19 CNS,26300 nM
same,GI50,SNB-75 CNS,201 nM
same,TGI,SNB-75 CNS,7710 nM
same,GI50,SR leukemia,926 nM
same,TGI,SR leukemia,3810 nM
same,GI50,SW-620 colon,1750 nM
same,TGI,SW-620 colon,3450 nM
same,GI50,T-47D breast,2270 nM
same,TGI,T-47D breast,7180 nM
same,GI50,TK-10 renal,1780 nM
same,TGI,TK-10 renal,3550 nM
same,GI50,UACC-257 melanoma,2180 nM
same,TGI,UACC-257 melanoma,4990 nM
same,GI50,UACC-62 melanoma,1840 nM
same,TGI,UACC-62 melanoma,3710 nM
same,GI50,UO-31 renal,1230 nM
same,TGI,UO-31 renal,2470 nM
Cn1cc(C2=C(c3cn(C)c4cc(Cl)ccc34)C(=O)NC2=O)c2ccccc21,GI50,786-0 renal,203 nM
same,TGI,786-0 renal,> 20800 nM
same,GI50,A498 renal,61.9 nM
same,TGI,A498 renal,928 nM
same,GI50,A549 NSCLC,115 nM
same,TGI,A549 NSCLC,> 25000 nM
same,GI50,ACHN renal,181 nM
same,TGI,ACHN renal,> 25000 nM
same,GI50,BT-549 breast,623 nM
same,TGI,BT-549 breast,> 25000 nM
same,GI50,CCRF-CEM leukemia,93 nM
same,TGI,CCRF-CEM leukemia,> 25000 nM
same,GI50,COLO 205 colon,70 nM
same,TGI,COLO 205 colon,180 nM
same,GI50,DU-145 prostate,119 nM
same,GI50,HCC-2998 colon,203 nM
same,TGI,HCC-2998 colon,> 11700 nM
same,GI50,HCT-116 colon,113 nM
same,TGI,HCT-116 colon,> 20600 nM
same,GI50,HCT-15 colon,103 nM
same,TGI,HCT-15 colon,> 25000 nM
same,GI50,HL-60(TB) leukemia,81.4 nM
same,TGI,HL-60(TB) leukemia,241 nM
same,GI50,HOP-62 NSCLC,124 nM
same,TGI,HOP-62 NSCLC,> 25000 nM
same,GI50,HOP-92 NSCLC,146 nM
same,TGI,HOP-92 NSCLC,> 23000 nM
same,GI50,HS 578T breast,73.1 nM
same,TGI,HS 578T breast,1930 nM
same,GI50,HT29 colon,92.8 nM
same,TGI,HT29 colon,> 9620 nM
same,GI50,IGROV1 ovarian,240 nM
same,TGI,IGROV1 ovarian,> 13200 nM
same,GI50,K-562 leukemia,89 nM
same,TGI,K-562 leukemia,> 25000 nM
same,GI50,KM12 colon,106 nM
same,TGI,KM12 colon,4350 nM
same,GI50,LOX IMVI melanoma,198 nM
same,TGI,LOX IMVI melanoma,> 25000 nM
same,GI50,M14 melanoma,87.9 nM
same,TGI,M14 melanoma,> 25000 nM
same,GI50,MALME-3M melanoma,87.8 nM
same,TGI,MALME-3M melanoma,6990 nM
same,GI50,MCF7 breast,97.2 nM
same,TGI,MCF7 breast,> 25000 nM
same,GI50,MDA-MB-231 breast,125 nM
same,TGI,MDA-MB-231 breast,> 5580 nM
same,GI50,MDA-MB-435,47.5 nM
same,TGI,MDA-MB-435,120 nM
same,GI50,MOLT-4 leukemia,345 nM
same,TGI,MOLT-4 leukemia,> 25000 nM
same,GI50,NCI-H226 lung,2080 nM
same,TGI,NCI-H226 lung,> 25000 nM
same,GI50,NCI-H23 lung,106 nM
same,TGI,NCI-H23 lung,9100 nM
same,GI50,NCI-H460 lung,96.1 nM
same,TGI,NCI-H460 lung,> 8900 nM
same,GI50,NCI-H522 lung,72.3 nM
same,TGI,NCI-H522 lung,345 nM
same,GI50,NCI/ADR-RES ovarian,76.1 nM
same,GI50,OVCAR-3 ovarian,65.3 nM
same,TGI,OVCAR-3 ovarian,154 nM
same,GI50,OVCAR-4 ovarian,362 nM
same,TGI,OVCAR-4 ovarian,> 25000 nM
same,GI50,OVCAR-5 ovarian,157 nM
same,TGI,OVCAR-5 ovarian,> 25000 nM
same,GI50,OVCAR-8 ovarian,117 nM
same,TGI,OVCAR-8 ovarian,> 25000 nM
same,GI50,PC-3 prostate,79.6 nM
same,TGI,PC-3 prostate,> 25000 nM
same,GI50,RPMI-8226 leukemia,93.9 nM
same,TGI,RPMI-8226 leukemia,> 15200 nM
same,GI50,SF-268 CNS,180 nM
same,TGI,SF-268 CNS,> 15100 nM
same,GI50,SF-295 CNS,93 nM
same,TGI,SF-295 CNS,> 25000 nM
same,GI50,SF-539 CNS,55.6 nM
same,TGI,SF-539 CNS,141 nM
same,GI50,SK-MEL-2 melanoma,212 nM
same,TGI,SK-MEL-2 melanoma,> 25000 nM
same,GI50,SK-MEL-28 melanoma,3590 nM
same,TGI,SK-MEL-28 melanoma,> 25000 nM
same,GI50,SK-MEL-5 melanoma,102 nM
same,TGI,SK-MEL-5 melanoma,2390 nM
same,GI50,SK-OV-3 ovarian,101 nM
same,TGI,SK-OV-3 ovarian,> 25000 nM
same,GI50,SN12C renal,145 nM
same,TGI,SN12C renal,> 15900 nM
same,GI50,SNB-19 CNS,145 nM
same,TGI,SNB-19 CNS,> 25000 nM
same,GI50,SNB-75 CNS,89.3 nM
same,TGI,SNB-75 CNS,> 25000 nM
same,GI50,SR leukemia,73 nM
same,TGI,SR leukemia,6380 nM
same,GI50,SW-620 colon,100 nM
same,TGI,SW-620 colon,> 25000 nM
same,GI50,TK-10 renal,3810 nM
same,TGI,TK-10 renal,> 25000 nM
same,GI50,U251 CNS,98.8 nM
same,TGI,U251 CNS,> 25000 nM
same,GI50,UACC-257 melanoma,169 nM
same,TGI,UACC-257 melanoma,> 25000 nM
same,GI50,UACC-62 melanoma,98.1 nM
same,TGI,UACC-62 melanoma,> 25000 nM
same,GI50,UO-31 renal,195 nM
same,TGI,UO-31 renal,> 25000 nM
